The text below walks through data of patent US20220324835A1 (Nurix Therapeutics, Inc., priority 2018, published 2022).

In experiment [1] the test system is T-cell. Nature of the experiment: IL-2 secretion from T-cells stimulated with anti-CD3 antibody alone (Biological Example 2). To be noted: T-cell, fold change over baseline, primary human total T-cells, read-out: IL-2 secretion Anti-CD3 stimulation; for fold induction at 1 µM: 1 μM Cbl-b inhibitor; for fold induction at 8 µM: 8 μM Cbl-b inhibitor. The format is cell-based, human.

Experiment [2] deals with anergic human T-cells. Nature of the experiment: Anergic T-cell activation assessed by IFNγ secretion (ionomycin-induced anergy). To be noted: anergic T-cells re-challenged with anti-CD3 and anti-CD28 for 24 hours, read-out: IFNγ Fold change from baseline. It counts as cell-based. The source says: Peripheral blood mononuclear cells (PBMC) were obtained either: 1) by using Ficoll-Paque™ (GE Healthcare) for separation of peripheral blood hematopoietic cells from buffy coats of healthy human donors; or 2) directly from LeukoPak donations. Total human primary T-cells were isolated from the PBMCs utilizing negative selection with commercial kits following the manufacturer's protocol (Miltenyi Catalog #130-096-535 (i.e., cocktail of antibodies against surface markers CD14, CD15, CD16, CD19, CD34, CD36, CD56, CD123 and CD235a were incubated with the PBMCs before passing the samples by magnetic beads for removal of cells expressing those surface markers) or StemCells Catalog #17951) to yield >95% CD3+ cells assessed by flow cytometry. The cells were activated with immobilized anti-CD3 antibody (OKT3) and soluble anti-CD28 antibody (28.2) for two days at which time they are washed and allowed to rest for three days in the absence of stimulation. They were then treated with ionomycin (Sigma) for 18-24 hours to induce anergy. Following two washes to remove the ionomycin from the samples, Cbl-b inhibitor compounds were added to the cells at the indicated concentrations (e.g. 10, 1.11 and 0.37 μM) and incubated for 1 hour. The cells were then re-challenged with anti-CD3 antibody and anti-CD28 antibody for 24 hours at which point cell free supernatants were collected and assessed for cytokines (e.g., IFNγ) by ELISA (R&D Systems or Peprotech) or Luminex multiplex kits (Procarta Life Technologies) following manufacturer's protocols.
Cbl-b inhibitors were tested to determine their ability to induce or enhance secretion of cytokines from anergic T-cells (e.g. IFNγ), which is indicative of decreased T-cell tolerance.
Readouts were reported as fold change over baseline. Baseline for this study was the measurement obtained from anergic human T-cells stimulated with immobilized anti-CD3 and soluble anti-CD28, wherein the T-cells were not incubated with a Cbl-b inhibitor (Table 7). For IFNγ changes greater than 2.5-fold over baseline were considered a positive response (Table 7). Compounds were ranked into bins according to their readout as follows for IFNγ: A indicates ≤2.50, B indicates 2.51-4.00 and C indicates >4.01.

The subject of experiment [3] is T-cell. Nature of the experiment: CD25 cell surface staining on T-cells stimulated with anti-CD3 antibody alone (Biological Example 2). It counts as cell-based, human. Conditions: T-cell, fold change over baseline, primary human total T-cells, read-out: CD25 staining Anti-CD3 stimulation; for fold induction at 1 µM: 1 μM Cbl-b inhibitor; for fold induction at 8 µM: 8 μM Cbl-b inhibitor.

The subject of experiment [4] is T-cell. The experiment is described as above. Conditions: 1 μM compound, primary human total T-cells, baseline = anti-CD3/anti-CD28 stimulated cells without inhibitor, read-out: CD25 staining, Anti-CD3 stimulation, fold change over baseline. It counts as cell-based.

SMILES strings stand for the structures.

Consider `C[C@H](Cc1nncn1C)c1cccc(NC(=O)c2cccc(C(F)(F)F)n2)c1` [Compound 183a, (R)-N-(3-(1-(4-methyl-4H-1,2,4-triazol-3-yl)propan-2-yl)phenyl)-6-(trifluoromethyl)picolinamide], for which, in experiment [1], the fold induction at 1 µM is over 0.201 and the fold induction at 8 µM is over 0.201. In experiment [2], the fold induction at 0.37 µM was at most 2.5, the fold induction at 1.11 µM lay in the range of 2.51 to 4 and the fold induction at 10 µM was at most 2.5. Moreover, in experiment [3], the fold induction at 1 µM is over 1 and the fold induction at 8 µM is over 1.
In the case of `Cc1cc(C(=O)Nc2cccc([C@H](C)Cc3nncn3C)c2)nc(C2CC2)n1` [Compound 195, (R)-2-cyclopropyl-6-methyl-N-(3-(1-(4-methyl-4H-1,2,4-triazol-3-yl)propan-2-yl)phenyl)pyrimidine-4-carboxamide], in experiment [1], the fold induction at 1 µM was over 0.201 and the fold induction at 8 µM was over 0.201. For the same molecule, in experiment [2], the fold induction at 0.37 µM was at most 2.5, the fold induction at 1.11 µM was at most 2.5 and the fold induction at 10 µM was at most 2.5. Further, in experiment [3], the fold induction at 1 µM was over 1 and the fold induction at 8 µM is over 1.
For `C[C@H](Cc1nncn1C)c1cccc(N2Cc3c(cccc3C(F)(F)F)C2=O)c1` [Compound 255a, (R)-2-(3-(1-(4-methyl-4H-1,2,4-triazol-3-yl)propan-2-yl)phenyl)-4-(trifluoromethyl)isoindolin-1-one], in experiment [1], the fold induction at 1 µM fell in the range of 0.051 to 0.1 and the fold induction at 8 µM was over 0.201. Besides, in experiment [2], the fold induction at 0.37 µM is at most 2.5, the fold induction at 1.11 µM lay within 2.51 to 4 and the fold induction at 10 µM is at most 2.5. Also, in experiment [3], the fold induction at 1 µM was 0.601 to 0.8 and the fold induction at 8 µM was over 1.
Take `C[C@H](Cc1nncn1C)c1cccc(NC(=O)c2n[nH]c3c2CCC3)c1` [Compound 313, (R)-N-(3-(1-(4-Methyl-4H-1,2,4-triazol-3-yl)propan-2-yl)phenyl)-1,4,5,6-tetrahydrocyclopenta[c]pyrazole-3-carboxamide]: in experiment [1], the fold induction at 1 µM lay within 0.101 to 0.15 and the fold induction at 8 µM was 0.151 to 0.2. Besides, in experiment [2], the fold induction at 0.37 µM is at most 2.5, the fold induction at 1.11 µM is at most 2.5 and the fold induction at 10 µM is at most 2.5. For the same molecule, in experiment [3], the fold induction at 1 µM was 0.601 to 0.8 and the fold induction at 8 µM was in the range of 0.801 to 1.
Turning to `Cc1cc(C(=O)Nc2cccc([C@@H](C)Cc3nncn3C)c2)nc(C2CC2)n1` [Compound 325, (S)-2-Cyclopropyl-6-methyl-N-(3-(1-(4-methyl-4H-1,2,4-triazol-3-yl)propan-2-yl)phenyl)pyrimidine-4-carboxamide], in experiment [1], the fold induction at 1 µM lay within 0.051 to 0.1 and the fold induction at 8 µM is 0.101 to 0.15. In addition, in experiment [2], the fold induction at 0.37 µM is at most 2.5, the fold induction at 1.11 µM was at most 2.5 and the fold induction at 10 µM was at most 2.5. In experiment [3], the fold induction at 1 µM was in the range of 0.801 to 1 and the fold induction at 8 µM is over 1.
Regarding `C[C@@H](c1cc2c(c(C(F)(F)F)c1)CN(c1cccc(C3(Cc4nncn4C)COC3)c1)C2=O)N1CCC(C)(F)CC1` [Example 553a, (S)-6-(1-(4-fluoro-4-methylpiperidin-1-yl)ethyl)-2-(3-(3-((4-methyl-4H-1,2,4-triazol-3-yl)methyl)oxetan-3-yl)phenyl)-4-(trifluoromethyl)isoindolin-1-one], the fold induction at 1 µM in experiment [4] is over 1.
The same measure, in the same setting: the figure for `C[C@H](c1cc2c(c(C(F)(F)F)c1)CN(c1cccc(C3(Cc4nncn4C)COC3)c1)C2=O)N1CCC(C)(F)CC1` [Example 553b, (R)-6-(1-(4-fluoro-4-methylpiperidin-1-yl)ethyl)-2-(3-(3-((4-methyl-4H-1,2,4-triazol-3-yl)methyl)oxetan-3-yl)phenyl)-4-(trifluoromethyl)isoindolin-1-one] is over 1.
